In patent US20220324835A1 (Nurix Therapeutics, Inc., priority 2018, published 2022):

What was measured:
Type in all cases: cell-based
[1] = system: primary human total T-cells; assay: T-cell activation assessed by cytokine secretion (GM-CSF, IFNγ, TNFα)
Text: (§1) Peripheral blood mononuclear cells (PBMC) were obtained either: 1) by using Ficoll-Paque™ (GE Healthcare) for separation of peripheral blood hematopoietic cells from buffy coats of healthy human donors; or 2) directly from FeukoPak donations. Total human primary T-cells were isolated from the PMBCs utilizing negative selection with commercial kits following the manufacturer's protocol (Miltenyi Catalog #130-096-535 (i.e., cocktail of antibodies against surface markers CD14, CD15, CD16, CD19, CD34, CD36, CD56, CD123 and CD235a are incubated with the PBMCs before passing the samples by magnetic beads for removal of cells expressing those surface markers) or StemCells Catalog #17951) to yield >95% CD3+ cells as assessed by flow cytometry. For measurement of cell proliferation, cells were labeled with Cell Trace Violet (Invitrogen) following manufacturer's protocol prior to activation by stimulation with anti-CD3 antibody alone or in combination with anti-CD28 antibody. The Cbl-b inhibitor was added to 1×10^5 cells per well at multiple concentrations (e.g., 10 μM, 1.11 μM, or 0.123 μM) with a final DMSO concentration of <0.1%. The plate was incubated for one hour at 37° C. in 5% CO2. Following incubation with the Cbl-b inhibitor, primary human total T-cells were stimulated with either plate bound anti-CD3 antibody (OKT3) alone or plate bound anti-CD3 antibody (OKT3) with soluble anti-CD28 antibody (28.2) (Life Technologies). To prepare plates with plate bound anti-CD3 antibody (OKT3), 96-well round bottom tissue culture plates were coated with 100 μl of anti-CD3 antibody (OKT3) at 10 μg/mL for 4 hours at 37° C. 5% CO2 in phosphate buffered saline (PBS). The plates were washed with PBS prior to adding the cells with or without soluble anti-CD28 antibody (28.2) to each well at a final concentration of 5 μg/mL. Cells were stimulated for 48 hours prior to harvesting the cell free supernatant and staining the cell population for surface marker assessment by flow cytometry. Supernatants were analyzed for cytokine secretion (e.g., GM-CSF, IFNγ and TNFα) by ELISA (R&D Systems, Peprotech or Life Technologies) or Luminex multiplex kits (Procarta Life Technologies) following manufacturer's protocol. Cells were stained with anti-CD69 (BD Biosciences) to assess levels of surface markers of activation. Proliferation was measured by flow cytometry and data was analyzed with FlowJo v7.6.5 or v10. Readouts were reported as fold change over baseline. In some embodiments, baseline was the measurement obtained from total human T-cells stimulated with anti-CD3 antibody alone, wherein the cells were not incubated with a Cbl-b inhibitor. In some embodiments, baseline was the measurement obtained from total human T-cells stimulated with anti-CD3 antibody and anti-CD28 antibody, where the cells were not incubated with a Cbl-b inhibitor.
(§2) Cbl-b inhibitors were tested to determine their ability to induce or enhance secretion of cytokines from T-cells (e.g., GM-CSF, IFNγ and TNFα) and/or surface expression of cell surface markers on T-cells (e.g., CD69) that is indicative of T-cell activation. Cbl-b inhibitors were also tested to determine their ability to induce or enhance T-cell proliferation. Cbl-b inhibitors were tested for their effects on T-cell activation in the presence of costimulation and where conditions were suboptimal for priming.
(§3) Readouts for T-cell activation were reported as fold change over baseline. Baseline for this study was the measurement obtained from total human T-cells stimulated with anti-CD3 antibody alone or anti-CD3 antibody in combination with soluble anti-CD28 antibody, where the cells were not incubated with a Cbl-b inhibitor. For T-cells stimulated with anti-CD3/anti-CD28 or with anti-CD3 alone changes greater than 1,2-fold over baseline for % positive CD69 staining and greater than 2-fold over baseline for % total proliferating cells were considered a significant and positive response (Table 4a). […]

[2] = system: primary human total T-cells; assay: T-cell activation assessed by cell proliferation (Cell Trace Violet)
Text: as §1, §2, §3

[3] = system: primary human total T-cells; assay: T-cell activation assessed by CD69 expression
Text: as §1, §2, §3

[4] = CD3/CD28 stimulation, read-out: GM-CSF secretion
[5] = CD3/CD28 stimulation, read-out: IFNγ secretion
[6] = CD3/CD28 stimulation, read-out: TNFα secretion
[7] = CD3 alone stimulation, read-out: GM-CSF secretion
[8] = CD3 alone stimulation, read-out: IFNγ secretion
[9] = CD3 alone stimulation, read-out: TNFα secretion
[10] = CD3/CD28 stimulation, CD4 T-cells, read-out: % CP (cell proliferation) (CD4)
[11] = CD3/CD28 stimulation, CD8 T-cells, read-out: % CP (cell proliferation) (CD8)
[12] = CD3 alone stimulation, CD8 T-cells, read-out: % CP (cell proliferation) (CD8)
[13] = CD3/CD28 stimulation, CD4 T-cells, read-out: % CD69+ (CD4)
[14] = CD3/CD28 stimulation, CD8 T-cells, read-out: % CD69+ (CD8)
[15] = CD3 alone stimulation, CD4 T-cells, read-out: % CD69+ (CD4)
[16] = CD3 alone stimulation, CD8 T-cells, read-out: % CD69+ (CD8)

Row | Compound | fold induction at 1.11 µM [1, 4] | fold induction at 1.11 µM [1, 5] | fold induction at 1.11 µM [1, 6] | fold induction at 10 µM [1, 4] | fold induction at 10 µM [1, 5] | fold induction at 10 µM [1, 6] | fold induction at 1.11 µM [1, 7] | fold induction at 1.11 µM [1, 8] | fold induction at 1.11 µM [1, 9] | fold induction at 10 µM [1, 7] | fold induction at 10 µM [1, 8] | fold induction at 10 µM [1, 9] | fold induction at 1.11 µM [2, 10] | fold induction at 10 µM [2, 10] | fold induction at 1.11 µM [2, 11] | fold induction at 10 µM [2, 11] | fold induction at 1.11 µM [2, 12] | fold induction at 10 µM [2, 12] | fold induction at 1.11 µM [3, 13] | fold induction at 10 µM [3, 13] | further results
1 | Cn1cnnc1CC1(c2cccc(NC(=O)c3nc4c(C(F)(F)F)cccc4[nH]3)c2)COC1 [Compound 335, N-(3-{3-[(4-methyl-1,2,4-triazol-3-yl)methyl]oxetan-3-yl}phenyl)-4-(trifluoromethyl)-1H-1,3-benzodiazole-2-carboxamide] | 1.51 to 2 | > 4 | 1.51 to 2 | > 4 | 2.01 to 3 | 2.01 to 4 | ≤ 1.5 | < 2 | 1.51 to 2 | 2.01 to 4 | 2.01 to 3 | 1.51 to 2 | > 4 | > 4 | 3.01 to 4 | 3.01 to 4 | > 4 | > 4 | 1.4 to 1.6 | > 1.6 | fold induction at 1.11 µM [3, 14]: 1.2 to 1.4; fold induction at 10 µM [3, 14]: 1.2 to 1.4; fold induction at 1.11 µM [3, 15]: > 1.6; fold induction at 10 µM [3, 15]: > 1.6; fold induction at 1.11 µM [3, 16]: 1.2 to 1.4; fold induction at 10 µM [3, 16]: 1.4 to 1.6
2 | Cc1cc(C(=O)Nc2cccc(C3(Cc4nncn4C)COC3)c2)nc(C2CC2)n1 [Compound 336, 2-cyclopropyl-6-methyl-N-(3-(3-((4-methyl-4H-1,2,4-triazol-3-yl)methyl)oxetan-3-yl)phenyl)pyrimidine-4-carboxamide] | 2.01 to 4 | 2.01 to 3 | 2.01 to 4 | > 4 | > 4 | 2.01 to 4 | 2.01 to 4 | 2.01 to 3 | 1.51 to 2 | 2.01 to 4 | > 4 | 1.51 to 2 | > 4 | > 4 | 3.01 to 4 | > 4 | > 4 | > 4 | 1.4 to 1.6 | 1.4 to 1.6 | fold induction at 1.11 µM [3, 14]: 1.2 to 1.4; fold induction at 10 µM [3, 14]: 1.2 to 1.4; fold induction at 1.11 µM [3, 15]: 1.4 to 1.6; fold induction at 10 µM [3, 15]: > 1.6; fold induction at 1.11 µM [3, 16]: 1.2 to 1.4; fold induction at 10 µM [3, 16]: 1.4 to 1.6
3 | Cc1n[nH]c(C)c1-c1cc2c(c(C(F)(F)F)c1)CN(c1cccc(C3(Cc4nncn4C)COC3)c1)C2=O [Compound 385, 6-(3,5-dimethyl-1H-pyrazol-4-yl)-2-(3-{3-[(4-methyl-4H-1,2,4-triazol-3-yl)methyl]oxetan-3-yl}phenyl)-4-(trifluoromethyl)-2,3-dihydro-1H-isoindol-1-one] | 1.51 to 2 | < 2 | 1.51 to 2 | 2.01 to 4 | > 4 | 2.01 to 4 | 1.51 to 2 | < 2 | ≤ 1.5 | 2.01 to 4 | < 2 | 1.51 to 2 | > 4 | > 4 | 2.01 to 3 | 3.01 to 4 | 3.01 to 4 | > 4 | 1.2 to 1.4 | 1.4 to 1.6 | fold induction at 1.11 µM [3, 14]: 1.2 to 1.4; fold induction at 10 µM [3, 14]: 1.2 to 1.4; fold induction at 1.11 µM [3, 15]: 1.4 to 1.6; fold induction at 10 µM [3, 15]: > 1.6; fold induction at 1.11 µM [3, 16]: 1.2 to 1.4; fold induction at 10 µM [3, 16]: 1.4 to 1.6
4 | C[C@H](Cc1nncn1C)c1cccc(N2Cc3c(cc(CN4CC(O)C4)cc3C(F)(F)F)C2=O)c1 [Compound 393, (R)-6-((3-hydroxyazetidin-1-yl)methyl)-2-(3-(1-(4-methyl-4H-1,2,4-triazol-3-yl)propan-2-yl)phenyl)-4-(trifluoromethyl)isoindolin-1-one] | ≤ 1.5 | 2.01 to 3 | ≤ 1.5 | 1.51 to 2 | > 4 | 1.51 to 2 | ≤ 1.5 | < 2 | ≤ 1.5 | ≤ 1.5 | < 2 | ≤ 1.5 | < 2 | 3.01 to 4 | < 2 | 2.01 to 3 | < 2 | < 2 | ≤ 1.2 | 1.2 to 1.4 | fold induction at 1.11 µM [3, 14]: ≤ 1.2; fold induction at 10 µM [3, 14]: ≤ 1.2; fold induction at 1.11 µM [3, 15]: 1.2 to 1.4; fold induction at 10 µM [3, 15]: 1.2 to 1.4; fold induction at 1.11 µM [3, 16]: ≤ 1.2; fold induction at 10 µM [3, 16]: ≤ 1.2
5 | C[C@H](Cc1nncn1C)c1cccc(N2Cc3c(cc(CN4CC(C)(O)C4)cc3C(F)(F)F)C2=O)c1 [Compound 397] | 2.01 to 4 | 2.01 to 3 | 2.01 to 4 | > 4 | > 4 | 2.01 to 4 | 2.01 to 4 | < 2 | 1.51 to 2 | 2.01 to 4 | < 2 | 1.51 to 2 | > 4 | > 4 | 3.01 to 4 | > 4 | > 4 | > 4 | 1.4 to 1.6 | 1.4 to 1.6 | fold induction at 1.11 µM [3, 14]: 1.2 to 1.4; fold induction at 10 µM [3, 14]: 1.2 to 1.4; fold induction at 1.11 µM [3, 15]: > 1.6; fold induction at 10 µM [3, 15]: > 1.6; fold induction at 1.11 µM [3, 16]: 1.2 to 1.4; fold induction at 10 µM [3, 16]: 1.4 to 1.6
